{
  "source": "the supplement of paper PMC10307832",
  "assay_in_all_cases": "relative viability (nuclei count vs DMSO), 5 days (fraction); higher = more cells survive",
  "key": {"[1]": {"compound": "C[As](C)SC[C@H](NC(=O)CC[C@H](N)C(=O)O)C(=O)NCC(=O)O [Darinaparsin] + CC1(C)CCC(c2ccc(Cl)cc2)=C(CN2CCN(c3ccc(C(=O)NS(=O)(=O)c4ccc(N[C@H](CCN5CCOCC5)CSc5ccccc5)c(S(=O)(=O)C(F)(F)F)c4)cc3)CC2)C1 [Navitoclax] (partner 0.5 µM)", "how_it_was_run": "(§1)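 A single step with final 0.05% Triton X-100, 1% formaldehyde and 1 ug/ml Hoechst fixed the cells and stained nuclei 5 days after treatment. Lung cancer cell lines in 1536-well plates had been treated by pin tool the day after seeding with one drug alone or a fixed anchor-drug dose plus five library-drug doses (not always all listed) in √10 steps, and nuclei were counted on 4× images. Relative viability is the ratio of nuclei in treated wells to nuclei in vehicle wells, taken as the median of duplicate plates.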"}, "QS11 + Phenformin": {"compound": "C1CC2=C(C1)C=C(C=C2)OC3=NC(=C4C(=N3)N(C=N4)CC5=CC=C(C=C5)C6=CC=CC=C6)N[C@@H](CC7=CC=CC=C7)CO [QS11] + N=C(N)NC(=N)NCCc1ccccc1 [Phenformin] (partner 250 µM)", "how_it_was_run": "as §1"}, "QS11 + Decitabine": {"compound": "C1CC2=C(C1)C=C(C=C2)OC3=NC(=C4C(=N3)N(C=N4)CC5=CC=C(C=C5)C6=CC=CC=C6)N[C@@H](CC7=CC=CC=C7)CO [QS11] + Nc1ncn([C@H]2C[C@H](O)[C@@H](CO)O2)c(=O)n1 [Decitabine] (partner 2 µM)", "how_it_was_run": "as §1"}, "AZ628 + Foretinib": {"compound": "CC1=C(C=C(C=C1)NC(=O)C2=CC(=CC=C2)C(C)(C)C#N)NC3=CC4=C(C=C3)N=CN(C4=O)C [AZ628] + COc1cc2c(Oc3ccc(NC(=O)C4(C(=O)Nc5ccc(F)cc5)CC4)cc3F)ccnc2cc1OCCCN1CCOCC1 [Foretinib] (partner 0.25 µM)", "how_it_was_run": "as §1"}},
  "data": [
    {"cell line": "LCLC-97TM1", "values": [
      {"measurement": "relative viability", "setting": "[1]; first compound 0.08 µM", "value": 0.383},
      {"measurement": "relative viability", "setting": "[1]; first compound 0.8 µM", "value": 0.947},
      {"measurement": "relative viability", "setting": "[1]; first compound 2.53 µM", "value": 0.398},
      {"measurement": "relative viability", "setting": "[1]; first compound 8 µM", "value": 0.579},
      {"measurement": "relative viability", "setting": "QS11 + Phenformin; first compound 0.08 µM", "value": 0.371},
      {"measurement": "relative viability", "setting": "QS11 + Phenformin; first compound 0.253 µM", "value": 0.431},
      {"measurement": "relative viability", "setting": "QS11 + Phenformin; first compound 2.53 µM", "value": 0.354},
      {"measurement": "relative viability", "setting": "QS11 + Phenformin; first compound 8 µM", "value": 0.294},
      {"measurement": "relative viability", "setting": "QS11 + Decitabine; first compound 0.253 µM", "value": 0.213},
      {"measurement": "relative viability", "setting": "QS11 + Decitabine; first compound 2.53 µM", "value": 0.257},
      {"measurement": "relative viability", "setting": "QS11 + Decitabine; first compound 8 µM", "value": 0.219},
      {"measurement": "relative viability", "setting": "AZ628 + Foretinib; first compound 0.08 µM", "value": 0.95},
      {"measurement": "relative viability", "setting": "AZ628 + Foretinib; first compound 0.253 µM", "value": 0.867},
      {"measurement": "relative viability", "setting": "AZ628 + Foretinib; first compound 0.8 µM", "value": 0.805},
      {"measurement": "relative viability", "setting": "AZ628 + Foretinib; first compound 2.53 µM", "value": 0.682},
      {"measurement": "relative viability", "setting": "AZ628 + Foretinib; first compound 8 µM", "value": 0.301}
    ]}
  ]
}
